Laboratory results: US11964984B2, “TXNIP-TRX complex inhibitors and methods of using the same” (CITY OF HOPE, priority 2020, dated 2024)

What was measured:
TXNIP mRNA [1] = assay: TXNIP mRNA expression in murine RAW macrophages (RT-PCR); format: cell-based, mouse; settings: RAW264.7 cells, 25 mM glucose, 72 hours
Method: (§1) FIGS. 3A-3B. FIG. 3A: C30 and C38 inhibited TXNIP mRNA expression in murine RAW macrophages. RAW cells were cultured under 25 mM glucose with various concentration of C30 and C38 as indicated for 72 hours. Total RNA was prepared. RT-PCR was performed and data shown are the mean±SEM from triplicates. Statistical analysis was performed for each column vs. high glucose (HG) DMSO using one-way ANOVA: *p<0.0001. FIG. 3B: Treatment with C30 and C38 decreased TNF-α mRNA expression in murine RAW macrophages. RAW cells were cultured under 25 mM glucose with various concentration of C30 and C38 as indicated for 72 hours. Total RNA was prepared. RT-PCR was performed and data shown are the mean±SEM from triplicates. Statistical analysis was performed for each column vs. HG DMSO using one-way ANOVA: *p<0.0001.
(§2) Treatment of murine RAW macrophages with lead compounds C30 and C38 decreased TXNIP and TNF-α. We have also tested the effects of the lead compound in murine RAW264.7 (RAW) macrophages. As in human THP1 cells, C30 and C38 inhibited TXNIP and TNF-α mRNA expression in mouse RAW cells (FIGS. 3A-3B) showing they are also effective in mouse cells. […]
(§3) RNA extraction and quantitative RT-PCR. […] Diluted cDNA was quantified using real-time PCR performed with Power SYBR Green qPCR MasterMix (Applied Biosystem) and 7500 real-time PCR system (Applied Biosystems). […]

TNF-α mRNA [2] = assay: TNF-α mRNA expression in murine RAW macrophages (RT-PCR); format: cell-based, mouse; settings: RAW264.7 cells, 25 mM glucose, 72 hours
Method: as §1, §2, §3

[3] = Body weight after maximum dose regime (90 mg/kg) in mice; format: in vivo; settings: 90 mg/kg oral gavage daily for 5 days, euthanasia 96 hr after last dose
Method: FIG. 15. Murine weight change after maximum dose regime (90 mg/kg).
(§4) The effects of compounds C30 and C38 at single high dose of 90 mg/kg. Twelve male mice were divided into three groups: 1) Control group (4 mice), 2) compound C30 (4 mice) and 3) compound C38 (4 mice). By oral gavage, animals were given 90 mg/kg of agent daily for 5 consecutive days (vehicle: 30% Solutol in saline). Mice were weighed every day during the treatment period. They were humanely euthanized 96 hours after the last dose. Tissues including the pancreas, liver and kidneys were collected (snap frozen in liquid nitrogen) for RNA extraction. […] Those given compound C30 lost ˜5% of body weight (FIG. 15).

human islets = assay: Human islet viability by FDA/PI staining under high glucose plus cytokines; format: cell-based; settings: HG/cytokine cocktail, 24 hr, 5 uM compound
Method: FIG. 19. Lead compounds enhance viability in human islets and protect them from apoptosis. 200 IEQ human islets (Hu 1183) were cultured in PIM(R)® medium containing NG (5.8 mM glucose) or HG (25 mM glucose), and mixture of TNFα (20 ng/ml), IL1β (20 ng/ml), and IFNγ (200 ng/ml) for 24 hours with or without C30 or C38. Islets were collected, washed with PBS once and stained with FDA and PI for 5 minutes and visualized with a Keyence All-in-One Fluorescence Microscope (BZ-X800E).
Lead compounds increase viability of human islets. […] Fluorescein diacetate/propidium iodide (FDA/PI) staining was employed to assess human islet viability.

TXNIP mRNA [4] = assay: TXNIP expression in murine blood after oral dosing (RT-PCR); format: in vivo, C57BL/6 mice; settings: 90 mg/kg oral gavage daily for five days, 96 hours after last dose
Method: FIG. 16. Compounds C30 and C38 reduce TXNIP expression in murine blood. Twelve male C57BL/6 mice were divided into three groups (vehicle, C30 and C38). They received 90 mg/kg of the indicated compounds via oral gavage daily for five days. Animals were humanely euthanized 96 hours after administration of the last drug dose. Blood samples were collected for total RNA extraction. RT-PCR was performed in triplicate and data shown are the mean±SEM. Statistical analysis was performed using one-way ANOVA: *p<0.001.
as §4
Expression of TXNIP in vivo in treated mice.

TXNIP mRNA [5] = assay: TXNIP mRNA levels in murine MIN6 pancreatic beta cells (RT-PCR); format: cell-based, mouse; settings: 25 mM glucose, 72 hours
Method: (§5) FIGS. 4A-4B. […] MIN6 cells were cultured under 25 mM glucose with C30 and C38 at the indicated concentrations for 72 hours. Total RNA was prepared. RT-PCR was performed and data shown are the mean±SEM from triplicates. Statistical analysis was performed for each column vs. HG DMSO using one-way ANOVA: *p<0.0001. […] MIN6 cells were cultured under 25 mM glucose and treated with C30 and C38 at the indicated concentrations for 72 hours. Total RNA was prepared. RT-PCR was performed and data shown are the mean±SEM from triplicates. Statistical analysis was performed for each column vs. HG DMSO using one-way ANOVA: *p<0.0001.
(§6) To ascertain the relevance to pancreatic beta cells, we tested the effects of the lead compounds on key target gene mRNA levels in murine MIN6 pancreatic beta cells.
(§7) RNA extraction and quantitative RT-PCR. RNA was extracted using the Direct-zol™ RNA MiniPrep Plus (Zymo Research). Reverse transcription of RNA samples into cDNA was performed using the GeneAmp RNA PCR Kit (Applied Biosystems), dNTP (from Roche Applied Science), Rnase inhibitor, MULV Reverse Transcriptase and Random hexamers reagent (all from Invitrogen). Diluted cDNA was quantified using real-time PCR performed with Power SYBR Green qPCR MasterMix (Applied Biosystem) and 7500 real-time PCR system (Applied Biosystems). The HPRT1 gene was used as an internal control.

TNF-α mRNA [6] = assay: TNF-α mRNA expression in THP1 cells under 25 mM glucose (RT-PCR); format: cell-based, human; settings: 72 hours, relatively higher concentrations needed than for TXNIP mRNA
Method: FIGS. 2A-2B. FIG. 2A: C30 and C38 inhibited TXNIP mRNA expression in THP1 cells. THP1 cells were cultured under 25 mM glucose with the indicated concentrations of compounds for 72 hours. Cells were then collected for total RNA preparation. RT-PCR was performed, and data shown are the mean±SEM from triplicates. Statistical analysis was performed using one-way ANOVA, *p<0.0001. FIG. 2B: C30 and C38 inhibited TNF-α mRNA expression in THP1 cells. THP1 cells were cultured under 25 mM glucose with various concentrations of compounds as indicated for 72 hours and collected for total RNA preparation. RT-PCR was performed, and data shown are the mean±SEM from triplicates. Statistical analysis was performed using one-way ANOVA: *<0.02; **<0.0001.
Treatment with both agents lead to lower levels of TNF-α mRNA, although this required relatively higher concentrations compared to those that suppressed TXNIP mRNA (see FIG. 2A).
RNA extraction and quantitative RT-PCR. RNA was extracted using the Direct-zol™ RNA MiniPrep Plus (Zymo Research). […] Diluted cDNA was quantified using real-time PCR performed with Power SYBR Green qPCR MasterMix (Applied Biosystem) and 7500 real-time PCR system (Applied Biosystems). […]

TNF-α mRNA [7] = assay: TNF-α mRNA expression in murine MIN6 pancreatic beta cells (RT-PCR); format: cell-based, mouse; settings: 25 mM glucose, 72 hours
Method: as §5, §6, §7

SMILES | TXNIP mRNA expression (TXNIP mRNA [1]) | TNF-α mRNA expression (TNF-α mRNA [2]) | loss of body weight [3] | human islet viability (FDA/PI staining) (human islets) | RNA expression level of TXNIP in blood (TXNIP mRNA [4]) | TXNIP mRNA levels (TXNIP mRNA [5]) | TNF-α mRNA expression (TNF-α mRNA [6]) | TNF-α mRNA expression (TNF-α mRNA [7]) | weight loss [3]
COc1cc(N2CC[C@@H](c3ccc4ccccc4c3)[C@H](O)C2)nc(N)n1 [Compound C30] | inhibited | inhibited | ~5% | protected human islets from death | reduced | decreased TXNIP mRNA levels | reduced TNF-α expression | tended to increase TNF-α mRNA expression | 
c1ccc(CCNc2ncnc3c2oc2ccccc23)cc1 [Compound C38] | inhibited | inhibited |  | protected human islets from death | reduced | decreased TXNIP mRNA levels | reduced TNF-α expression | tended to increase TNF-α mRNA expression | no significant weight loss
